Experimental data reported in article PMC13266999, “Designing Antibiotics with Inherent Resistance to Efflux as a Strategy to Revive Discovery against Multidrug-Resistant Pathogens” (Journal of Medicinal Chemistry, 2026).
In brackets after ≈: the same amount, converted by molar mass. Where two headings read alike, the source gives them in different places.

Legend:
A. baumannii = experiment: Mutation frequency and agar MIC; assay type: cell-based; details: A118
Description: (§1) Mutation frequencies were performed on solid media at supra-inhibitory concentrations. First, the agar MIC was performed to account for any issues in solubility of compounds in solid media. Agar plates were prepared with 2-fold dilutions of compound.
(§2) For the mutation frequency assay, bacteria from an overnight culture were grown to mid exponential phase in liquid broth, then 100 μL was spread onto an agar plate containing compound at concentrations above the agar MIC. A Miles-Misra was also conducted on an antibiotic-free agar plate to determine the CFU/mL of the starting population. […] The mutation frequency was calculated by dividing the number of colonies on supra inhibitory con-centration plates by the starting population.

E. coli = experiment: Mutation frequency and agar MIC; assay type: cell-based
Description: as §1, §2

S. aureus [1] = experiment: Mutation frequency and agar MIC; assay type: cell-based
Description: as §1, §2

Pseudomonas aeruginosa = experiment: MIC (microbroth dilution); assay type: cell-based
Summary of the method: (§3)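 Overnight stationary-phase bacteria were back-diluted and tested by broth microdilution, Streptococcus spp. in cation-adjusted Mueller Hinton broth plus 2.5% lysed horse blood, other species in tryptic soy broth. Some wells also received polymyxin B nonapeptide at 30 μg/mL final. Growth checked visually with OD600; MIC = minimum concentration showing no growth.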

S. dysgalactiae = experiment: MIC (microbroth dilution); assay type: cell-based; details: for MIC: Streptococcus dysgalactiae
Summary of the method: as §3

S. aureus [2] = experiment: MIC (microbroth dilution); assay type: cell-based, Staphylococcus aureus
Summary of the method: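 Broth microdilution MICs, defined as lowest compound level without visible growth (OD600 read), on bacteria grown overnight to stationary phase then diluted. Twofold compound dilutions; some wells also received PMBN, final 30 μg/mL, to permeabilize the outer membrane.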

Pharmacokinetics = details: male, ICR (CD-1), mouse
Description: Pharmacokinetic studies were performed in male ICR (CD-1) mice obtained from Charles River, UK. […] Blood samples were collected from the caudal vein into anticoagulant-treated capillaries at predetermined time points up to 8 h, with terminal cardiac puncture at 8 h. Plasma samples were stored at −80 °C until analysis. […] A compound-specific LC-MS/MS method was developed for each test article using matrix-matched calibrators following protein precipitation of samples.

C[C@H]1COc2c(N3CC[C@@H](Nc4ncccn4)C3)c(F)cc3c(=O)c(C(=O)O)cn1c23 [Compound 46, (S)-9-Fluoro-3-methyl-7-oxo-10-((R)-3-(pyrimidin-2-ylamino)pyrrolidin-1-yl)-2,3-dihydro-7H-[1,4]oxazino[2,3,4-ij]quinoline-6-carboxylic acid]
Agar MIC (A. baumannii): 0.03 µg/mL | Agar MIC (E. coli; NCTC 12241): 0.03 µg/mL | Agar MIC (E. coli; NCTC 12923): 0.12 µg/mL | Agar MIC (S. aureus [1]; ATCC 9144): 0.008 µg/mL | Agar MIC (S. aureus [1]; NCTC 13616): 0.5 µg/mL | MIC (Pseudomonas aeruginosa; CAS4, + PMBN): 0.06 µg/mL | MIC (Pseudomonas aeruginosa; CFL 004 CRCN, + PMBN): 8 µg/mL | MIC (Pseudomonas aeruginosa; GH12, + PMBN): 0.5 µg/mL | MIC (Pseudomonas aeruginosa; NCTC 10662, + PMBN): ≤ 0.03 µg/mL | MIC (Pseudomonas aeruginosa; NCTC 12903, + PMBN): ≤ 0.03 µg/mL | MIC (Pseudomonas aeruginosa; NCTC 13359, + PMBN): 0.06 µg/mL | MIC (Pseudomonas aeruginosa; PAO1 ΔmexB, + PMBN): ≤ 0.03 µg/mL | MIC (Pseudomonas aeruginosa; Pseudomonas aeruginosa, CAS4, read-out: MIC): 8 µg/mL (≈ 18.8 µM) | MIC (Pseudomonas aeruginosa; Pseudomonas aeruginosa, GH12, read-out: MIC): > 32 µg/mL | MIC (Pseudomonas aeruginosa; Pseudomonas aeruginosa, GH100, read-out: MIC): 1 to 4 µg/mL (≈ 2.35 to 9.4 µM) | MIC (Pseudomonas aeruginosa; Pseudomonas aeruginosa, NCTC10662, NCTC 10662, read-out: MIC): 8 µg/mL (≈ 18.8 µM) | MIC (Pseudomonas aeruginosa; Pseudomonas aeruginosa, NCTC12903, NCTC 12903, read-out: MIC): 8 µg/mL (≈ 18.8 µM) | MIC (Pseudomonas aeruginosa; Pseudomonas aeruginosa, NCTC13359, NCTC 13359, read-out: MIC): 4 to 32 µg/mL (≈ 9.4 to 75.2 µM) | MIC (Pseudomonas aeruginosa; Pseudomonas aeruginosa, PAO1, PAO1, read-out: MIC): 4 to 8 µg/mL (≈ 9.4 to 18.8 µM) | MIC (Pseudomonas aeruginosa; Pseudomonas aeruginosa, CFL 004 CRCN, read-out: MIC): > 32 µg/mL | MIC50 (Pseudomonas aeruginosa; Pseudomonas aeruginosa, in the presence of PMBN, n = 7 strains): 0.06 µg/mL | MIC (S. dysgalactiae; 10238, read-out: MIC): 0.06 to 0.25 µg/mL (≈ 0.141 to 0.588 µM) | MIC (S. dysgalactiae; 13759, read-out: MIC): 0.06 µg/mL (≈ 0.141 µM) | MIC (S. dysgalactiae; 13762, read-out: MIC): 0.06 µg/mL (≈ 0.141 µM) | MIC (S. dysgalactiae; 81251): 0.125 µg/mL (≈ 0.294 µM) | MIC (S. dysgalactiae; 81553): 0.125 µg/mL (≈ 0.294 µM) | MIC (S. dysgalactiae; 84143): 0.06 to 0.125 µg/mL (≈ 0.141 to 0.294 µM) | MIC (S. dysgalactiae; 84557): 0.03 to 0.125 µg/mL (≈ 0.0705 to 0.294 µM) | MIC (S. dysgalactiae; 84574): 0.06 to 0.125 µg/mL (≈ 0.141 to 0.294 µM) | MIC range (S. dysgalactiae; n = 8): 0.0625 to 0.125 µg/mL | MIC (S. aureus [2]; NCTC 13616): 0.5 to 1 µg/mL | fold difference in MIC, SA-1199B vs SA-1199 (S. aureus [2]; NorA-overexpressing vs WT): 2 fold | MIC (S. aureus [2]; SA-1199B (NorA-overexpressing)): 0.03 µg/mL (≈ 0.0705 µM) | MIC (S. aureus [2]; Staphylococcus aureus, 1199, + 4% albumin, read-out: MIC): 0.03 to 0.06 µg/mL | MIC (S. aureus [2]; Staphylococcus aureus, 1199b, + 4% albumin, read-out: MIC): 0.06 µg/mL | MIC (S. aureus [2]; Staphylococcus aureus, ATCC9144, ATCC 9144, + 4% albumin, read-out: MIC): 0.03 to 0.06 µg/mL | MIC (S. aureus [2]; Staphylococcus aureus, ATCC9144, ATCC 9144, read-out: MIC): ≤ 0.03 µg/mL | MIC (S. aureus [2]; Staphylococcus aureus, NCTC13277, NCTC 13277, + 4% albumin, read-out: MIC): 1 to 2 µg/mL | MIC (S. aureus [2]; Staphylococcus aureus, NCTC13277, NCTC 13277, read-out: MIC): 1 µg/mL (≈ 2.35 µM) | MIC (S. aureus [2]; Staphylococcus aureus, NCTC13616, NCTC 13616, + 4% albumin, read-out: MIC): 1 to 2 µg/mL | MIC (S. aureus [2]; Staphylococcus aureus, NCTC13616, NCTC 13616, read-out: MIC): 0.5 µg/mL (≈ 1.18 µM) | MIC (S. aureus [2]; Staphylococcus aureus, SA-1199B (NorA-overexpressing)): 0.016 µg/mL (≈ 0.0376 µM) | fold potentiation compared to levofloxacin (S. aureus [2]; fluoroquinolone-resistant NCTC 13616 and NCTC 13277): 16–32 fold | half-life (Pharmacokinetics; in vivo, po, 20 mg/kg): 306 min | AUC(0-inf) (Pharmacokinetics; plasma, iv, 5 mg/kg): 15700 ng·h/mL | bioavailability (Pharmacokinetics; plasma, po, 20 mg/kg): 49.3%
